pEC50: −log10 of the molar value. Several values for one entry are separate records, joined by “and”; a condition that tells them apart may be missing. Equal entries are not always repeated.
Tests used:
[1] = system: SNL rats, tactile allodynia; assay: Spinal nerve ligation (SNL) model of neuropathic pain, tactile hypersensitivity (von Frey); assay type: in vivo, rat; conditions: 30 mg/kg IP, 30-300 minutes after administration
From the text: Subjects. Male Sprague-Dawley rats (Indianapolis, Ind.) weighing 150 to 200 g at time of arrival, were individually housed in wire cages in a climate-controlled room. A 12-hour light/dark cycle (lights on at 0630) was in effect, and food and water were available ad libitum.
Surgery—Spinal Nerve Ligation. Rats were anesthetized with 3.5% halothane in O2 at 1 L/min and maintained with 1.5% halothane in O2 during surgery. Ligation of the L5 and L6 nerves was produced by an incision through the left paraspinal muscles. The left L5 and L6 spinal nerves were isolated adjacent to the vertebral column and ligated tightly with 6-0 silk suture just distal to the dorsal root ganglion. The wound was closed in layers using 4-0 silk suture and wound clips. Testing began 7 days after surgery.
Assessment of tactile hypersensitivity. […] Baseline tactile sensitivity was assessed using a series of calibrated von Frey monofilaments (Stoelting; Wood Dale, Ill.) 0 to 3 days before surgery. […] The ability of a single dose of test compound to reverse established hypersensitivity was assessed using a time course procedure. […]
Results are presented as the 50% threshold values (50% threshold in g force) estimated by the Dixon non-parametric test. […] Significant main effects were analyzed further by subsequent least significant difference analysis. […]

[2] = target: human norepinephrine transporter (hNET) (Homo sapiens, UniProt P23975); assay: cell-based; conditions: hNET function uptake (EC50 in nm), MDCK-Net6 cells, [3H]NE uptake
Procedure: Test compounds were prepared in DMSO (10 mM) and diluted in assay buffer according to test range (1 to 10,000 nM). Twenty-five microliters of assay buffer (maximum NE uptake) or test compound were added directly to triplicate wells containing cells in 200 μl of assay buffer. […] To initiate the NE uptake, [^3H]NE diluted in assay buffer (120 nM final assay concentration) was delivered in 25 μl aliquots to each well and the plates were incubated for 5 minutes (37° C.).

[3] = target: T1, human serotonin transporter (hSERT) (Homo sapiens, UniProt P31645); assay: Serotonin (5-HT) uptake assay in JAR cells (hSERT function uptake); assay type: cell-based; conditions: [3H]5-HT uptake
T1 construct: The methods for 5-HT functional reuptake using the JAR cell line were modified using a previous literature report; host or cells: JAR (human placental choriocarcinoma), staurosporine-stimulated
Procedure: The methods for 5-HT functional reuptake using the JAR cell line were modified using a previous literature report. […] On day 2, cells were stimulated with staurosporine (40 nM) to increase the expression of the 5-HT transporter. On day 3, cells were removed from the cell incubator two hours prior to assay and maintained at room temperature to equilibrate the growth medium to ambient oxygen concentration. […] Twenty-five microliters of assay buffer (maximum 5-HT uptake) or test compound were added directly to triplicate wells containing cells in 200 μl of assay buffer. The cells were incubated with the compound for 10 minutes (37° C.). […] The cells were incubated with the reaction mixture for 5 minutes at 37° C. The 5-HT uptake reaction was terminated by decanting the assay buffer.

hNET = hNET (Homo sapiens, UniProt P23975); assay: hNET binding
hSERT = hSERT (Homo sapiens, UniProt P31645); assay: hSERT binding
[4] = system: OVX rats, tail skin temperature (TST); assay: Telemetry rat model of ovariectomy-induced thermoregulatory dysfunction (tail skin temperature); assay type: in vivo; conditions: 30 mg/kg sc; for Duration: duration of effect on TST; for Onset: onset of action on TST
From the text: This model has been modified from a previously reported protocol describing estrogen regulation of diurnal tail skin temperature (TST) patterns (Berendsen, et al., European Journal of Pharmacology, 2001, 419(1): 47-54). […] A temperature and physical activity transmitter (PhysioTel TA10TA-F40, Data Sciences International) was implanted subcutaneously in the dorsal scapular region and the tip of the temperature probe was tunneled subcutaneously 2.5 cm beyond the base of the tail. After a 7-day recovery period, TST readings were continuously recorded for the remainder of the study. Tail skin temperature readings were collected from each animal every 5 minutes with values obtained over a 10 second sampling period. The day before test day, an average baseline TST value was calculated for each animal by averaging temperature readings recorded during the 12 hour active (dark) phase. In these studies, animals were dosed approximately 40 minutes prior to the onset of dark cycle.
Statistical analysis: Evaluation of a compound's ability to restore normal lowering of TST in the telemetry model was analyzed using hourly TST values calculated for each animal by averaging the 12 temperature readings obtained every 5 minutes over that recording time. To analyze ΔTST in the telemetry model, a two factors repeated measure ANOVA was performed. The model used for analysis was ΔTST=GRP (group)+HR (hours)+GRP*HR+BASELINE. Thus, the reported least squares means are the expected mean values as if both groups had the same baseline value. Post-hoc tests of hourly GRP*HR samples are t-tests of the difference between groups for each hour. To be conservative, a result was not considered significant unless the p-value was <0.025. All analyses were performed using SAS PROC MIXED (SAS, Carey, N.C.).
Rats were injected subcutaneously with vehicle (2%Tween/0.5% methylcellulose) or 30 mg/kg, sc test compound dissolved in 2%Tween/0.5% methylcellulose. The effect of test compound is measured by evaluating the following parameters in this model: onset of action, duration of effect on TST, maximal change in TST and mean change in TST over the duration of the compound effect.

[5] = system: OVX rats, tail skin temperature (TST); assay: as above; assay type: in vivo; conditions: 30 mg/kg, sc; p<0.05 compared to vehicle control

human norepinephrine transporter (hNET), sequence (P23975 whole entry): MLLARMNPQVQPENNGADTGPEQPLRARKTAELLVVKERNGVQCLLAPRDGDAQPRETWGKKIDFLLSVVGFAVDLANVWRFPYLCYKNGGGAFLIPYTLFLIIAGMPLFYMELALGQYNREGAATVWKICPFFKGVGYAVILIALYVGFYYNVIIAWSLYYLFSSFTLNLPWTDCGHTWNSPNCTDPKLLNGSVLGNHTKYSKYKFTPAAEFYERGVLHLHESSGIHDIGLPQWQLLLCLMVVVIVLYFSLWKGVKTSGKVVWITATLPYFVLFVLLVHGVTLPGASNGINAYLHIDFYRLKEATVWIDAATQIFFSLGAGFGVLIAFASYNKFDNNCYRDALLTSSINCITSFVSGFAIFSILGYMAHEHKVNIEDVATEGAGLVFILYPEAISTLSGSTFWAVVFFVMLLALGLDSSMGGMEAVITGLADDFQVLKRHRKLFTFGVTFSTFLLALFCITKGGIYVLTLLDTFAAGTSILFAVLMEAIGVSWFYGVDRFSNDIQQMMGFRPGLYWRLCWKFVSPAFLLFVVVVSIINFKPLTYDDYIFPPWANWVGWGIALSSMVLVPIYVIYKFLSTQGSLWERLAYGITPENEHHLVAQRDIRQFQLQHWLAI
T1 sequence (P31645 whole entry): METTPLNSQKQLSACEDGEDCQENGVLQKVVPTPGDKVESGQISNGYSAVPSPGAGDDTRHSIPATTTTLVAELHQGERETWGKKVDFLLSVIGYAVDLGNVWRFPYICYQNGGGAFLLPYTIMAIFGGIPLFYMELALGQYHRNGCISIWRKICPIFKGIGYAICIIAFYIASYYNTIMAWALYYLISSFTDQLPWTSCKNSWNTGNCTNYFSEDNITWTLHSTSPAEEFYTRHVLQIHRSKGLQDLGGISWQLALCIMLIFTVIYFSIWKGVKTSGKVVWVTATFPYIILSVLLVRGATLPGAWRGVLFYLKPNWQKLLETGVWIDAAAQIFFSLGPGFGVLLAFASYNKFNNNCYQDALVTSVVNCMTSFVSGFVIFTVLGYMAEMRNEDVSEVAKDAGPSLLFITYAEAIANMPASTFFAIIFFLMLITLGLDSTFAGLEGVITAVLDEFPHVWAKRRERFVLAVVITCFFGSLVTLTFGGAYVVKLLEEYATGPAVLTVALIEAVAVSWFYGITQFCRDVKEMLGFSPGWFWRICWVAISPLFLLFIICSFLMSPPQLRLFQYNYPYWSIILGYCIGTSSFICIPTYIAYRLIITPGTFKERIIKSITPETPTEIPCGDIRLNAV
hSERT, sequence (P31645 whole entry): as above
hNET, sequence (P23975 whole entry): as the sequence (P23975 whole entry) above

pEC50 [2] | pEC50 [3] | hNET binding (% I @ 1 μM) (hNET) [% I] | hSERT binding (% I @ 1 μM) (hSERT) [% I] | SMILES | Reversal of tactile allodynia in the SNL neuropathic pain model [1] | Activity Index [4] [h] | Duration [4] [h] | Onset [4] [h] | Restoration of normal TST in OVX-induced thermoregulatory dysfunction telemetry model [5]
 |  |  |  | Clc1ccc(C23CNCC2C3)cc1Cl (racemic) [Racemic 1-(3,4-dichlorophenyl)-3-azabicyclo[3.1.0]hexane, 1-(3,4-dichlorophenyl)-3-azabicyclo[3.1.0]hexane] | significantly reverses tactile allodynia |  |  |  | 
6.58 and 6.37 | 6.13 | 71.8 | 42.8 | Cc1ccc(C23CNCC2C3)cc1 (racemic) [Racemic 1-(4-methylphenyl)-3-azabicyclo[3.1.0]hexane, 1-(4-methylphenyl)-3-azabicyclo[3.1.0]hexane] |  | -10.6 | 3.5 | 0.5 | restores normal TST
 |  |  |  | Cc1ccc(C23CNCC2C3)cc1 (single isomer, unassigned; (+)) [(+)-1-(4-methylphenyl)-3-azabicyclo[3.1.0]hexane] |  | -2.99 | 3.5 | 0.5 | restores normal TST
